Source: patent US20240018158A1, “BRM TARGETING COMPOUNDS AND ASSOCIATED METHODS OF USE” (Prelude Therapeutics Incorporated, priority 2020, published 2024)

Columns and labels:
[1] = target: SMARCA2 (Homo sapiens (Human), UniProt P51531); assay: SMARCA2 HiBiT degradation assay in HeLa cells; type: cell-based; details: 18 hours; for DC50: read-out: DC50 (SM2-HeLa) SMARCA2 degradation potency; for Dmax: read-out: Dmax % (SM2-HeLa) maximum SMARCA2 degradation within the concentrations tested
Description: (§1) HiBiT peptide knock-in of SMARCA2 in LgBiT expressing HEK293T cells was performed by CRISPR-mediated tagging system as described Promega. The homozygous HiBiT knock-in on c-terminus SMARCA2 was confirmed by sanger sequence. SMARCA2-HiBiT knock-in Hela monoclonal cell (CS302366) and SMARCA4-HiBiT knock-in Hela monoclonal cell (CS3023226) were purchased from Promega. The heterozygous HiBiT-knock-in was confirmed by sanger sequence in both SMARCA2-HiBiT and SMARCA4-HiBiT monoclonal cells.
(§2) Dispense 10 μL aliquot of prepared Hela-SMARCA2-HiBiT or Hela-SMARCA4-HiBiT cells (1:1 ratio of cells:Trypan Blue (#1450013, Bio-Rad)) onto cell counting slide (#145-0011, Bio-Rad) and obtain cell density and cell viability using cell counter (TC20, Bio-Rad). Remove appropriate volume of resuspended cells from culture flask to accommodate 2500 cells/well @ 20 μL/well. Transfer Hela-HiBiT cells to 50 ml conical (#430290, Corning). Spin down at 1000 rpm for 5 min using tabletop centrifuge (SPINCHRON 15, Beckman). Discard supernatant and resuspend cell pellet in modified EMEM (#30-2003, ATCC) cell culture media containing 10% FBS (F2422-500ML, Sigma), and 1×Penicillin/Streptomycin (200 g/1) (30-002-CI, Corning) to a cell density of 125,000 cells/ml. Dispense 20 μL of resuspended Hela-HiBit cells per well in 384-well TC treated plate (#12-565-343, Thermo Scientific) using standard cassette (#50950372, Thermo Scientific) on Multidrop Combi (#5840310, Thermo Scientific) inside laminar flow cabinet. Dispense test compounds onto plates using digital liquid dispenser (D300E, Tecan). Incubate plates in humidified tissue culture incubator @37° C. for 18 hours. Add 20 ul of prepared Nano-Glo® HiBiT Lytic detection buffer (N3050, Promega) to each well of 384-well plate using small tube cassette (#24073295, Thermo Scientific) on Multidrop Combi, incubate @ RT for 30-60 min. Read plates on microplate reader (Envision 2105, PerkinElmer) using 384 well Ultra-Sensitive luminescence mode. Raw data files and compound information reports are swept into centralized data lake and deconvoluted using automated scripts designed by TetraScience, Inc. Data analysis, curve-fitting and reporting done in Dotmatics Informatics Suite using Screening Ultra module.

[2] = target: SMARCA4 (Homo sapiens (Human), UniProt P51532); assay: SMARCA4 HiBiT degradation assay in HeLa cells; type: cell-based; details: 18 hours; for DC50: read-out: DC50 (SM4-HeLa) SMARCA4 degradation potency; for Dmax: HeLa, read-out: Dmax % (SM4-HeLa) maximum SMARCA4 degradation within the concentrations tested
Chain of SMARCA4 (P51532 whole entry): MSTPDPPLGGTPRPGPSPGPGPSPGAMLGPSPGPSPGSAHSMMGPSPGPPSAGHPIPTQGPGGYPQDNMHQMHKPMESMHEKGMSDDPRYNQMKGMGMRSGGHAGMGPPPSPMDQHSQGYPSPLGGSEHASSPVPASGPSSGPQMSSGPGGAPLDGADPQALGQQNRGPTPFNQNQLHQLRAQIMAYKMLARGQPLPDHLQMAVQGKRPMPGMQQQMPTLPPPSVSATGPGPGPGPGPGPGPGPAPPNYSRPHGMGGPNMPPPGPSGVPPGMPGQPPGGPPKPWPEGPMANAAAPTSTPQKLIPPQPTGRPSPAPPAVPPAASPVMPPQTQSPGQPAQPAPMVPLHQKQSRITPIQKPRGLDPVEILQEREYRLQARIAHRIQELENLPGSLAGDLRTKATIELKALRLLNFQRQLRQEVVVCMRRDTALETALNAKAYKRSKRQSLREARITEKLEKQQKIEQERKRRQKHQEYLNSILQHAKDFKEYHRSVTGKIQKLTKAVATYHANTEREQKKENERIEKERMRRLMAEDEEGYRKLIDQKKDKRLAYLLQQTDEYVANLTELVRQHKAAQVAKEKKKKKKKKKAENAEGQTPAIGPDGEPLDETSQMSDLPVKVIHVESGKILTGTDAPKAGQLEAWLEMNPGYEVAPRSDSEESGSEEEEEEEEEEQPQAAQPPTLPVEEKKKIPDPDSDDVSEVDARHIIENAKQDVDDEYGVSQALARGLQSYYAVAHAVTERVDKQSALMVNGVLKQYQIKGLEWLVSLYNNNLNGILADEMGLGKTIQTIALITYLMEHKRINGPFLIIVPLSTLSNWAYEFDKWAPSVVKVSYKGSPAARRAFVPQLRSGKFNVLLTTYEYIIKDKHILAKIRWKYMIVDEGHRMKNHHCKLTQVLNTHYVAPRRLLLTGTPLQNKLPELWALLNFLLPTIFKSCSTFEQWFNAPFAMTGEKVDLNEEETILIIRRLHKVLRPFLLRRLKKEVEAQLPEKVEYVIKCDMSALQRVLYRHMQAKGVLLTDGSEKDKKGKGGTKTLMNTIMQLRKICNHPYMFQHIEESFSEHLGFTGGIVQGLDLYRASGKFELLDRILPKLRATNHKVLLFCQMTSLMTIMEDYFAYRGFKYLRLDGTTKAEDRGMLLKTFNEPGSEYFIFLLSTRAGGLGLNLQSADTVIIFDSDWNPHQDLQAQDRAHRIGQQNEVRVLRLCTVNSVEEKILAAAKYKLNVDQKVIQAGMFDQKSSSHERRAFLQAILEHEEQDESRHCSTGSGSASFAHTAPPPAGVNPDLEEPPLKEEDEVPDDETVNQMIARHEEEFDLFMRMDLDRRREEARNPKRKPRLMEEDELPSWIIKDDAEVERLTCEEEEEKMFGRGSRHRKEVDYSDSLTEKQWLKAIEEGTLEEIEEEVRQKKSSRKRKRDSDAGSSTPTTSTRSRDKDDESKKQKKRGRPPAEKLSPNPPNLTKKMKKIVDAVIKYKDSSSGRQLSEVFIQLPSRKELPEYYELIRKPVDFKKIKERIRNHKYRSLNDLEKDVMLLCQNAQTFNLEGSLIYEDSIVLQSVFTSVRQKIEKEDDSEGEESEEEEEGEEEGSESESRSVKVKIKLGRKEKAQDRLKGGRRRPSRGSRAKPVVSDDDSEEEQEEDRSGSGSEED
Description: as §1, §2

Chain of SMARCA2 (P51531 whole entry): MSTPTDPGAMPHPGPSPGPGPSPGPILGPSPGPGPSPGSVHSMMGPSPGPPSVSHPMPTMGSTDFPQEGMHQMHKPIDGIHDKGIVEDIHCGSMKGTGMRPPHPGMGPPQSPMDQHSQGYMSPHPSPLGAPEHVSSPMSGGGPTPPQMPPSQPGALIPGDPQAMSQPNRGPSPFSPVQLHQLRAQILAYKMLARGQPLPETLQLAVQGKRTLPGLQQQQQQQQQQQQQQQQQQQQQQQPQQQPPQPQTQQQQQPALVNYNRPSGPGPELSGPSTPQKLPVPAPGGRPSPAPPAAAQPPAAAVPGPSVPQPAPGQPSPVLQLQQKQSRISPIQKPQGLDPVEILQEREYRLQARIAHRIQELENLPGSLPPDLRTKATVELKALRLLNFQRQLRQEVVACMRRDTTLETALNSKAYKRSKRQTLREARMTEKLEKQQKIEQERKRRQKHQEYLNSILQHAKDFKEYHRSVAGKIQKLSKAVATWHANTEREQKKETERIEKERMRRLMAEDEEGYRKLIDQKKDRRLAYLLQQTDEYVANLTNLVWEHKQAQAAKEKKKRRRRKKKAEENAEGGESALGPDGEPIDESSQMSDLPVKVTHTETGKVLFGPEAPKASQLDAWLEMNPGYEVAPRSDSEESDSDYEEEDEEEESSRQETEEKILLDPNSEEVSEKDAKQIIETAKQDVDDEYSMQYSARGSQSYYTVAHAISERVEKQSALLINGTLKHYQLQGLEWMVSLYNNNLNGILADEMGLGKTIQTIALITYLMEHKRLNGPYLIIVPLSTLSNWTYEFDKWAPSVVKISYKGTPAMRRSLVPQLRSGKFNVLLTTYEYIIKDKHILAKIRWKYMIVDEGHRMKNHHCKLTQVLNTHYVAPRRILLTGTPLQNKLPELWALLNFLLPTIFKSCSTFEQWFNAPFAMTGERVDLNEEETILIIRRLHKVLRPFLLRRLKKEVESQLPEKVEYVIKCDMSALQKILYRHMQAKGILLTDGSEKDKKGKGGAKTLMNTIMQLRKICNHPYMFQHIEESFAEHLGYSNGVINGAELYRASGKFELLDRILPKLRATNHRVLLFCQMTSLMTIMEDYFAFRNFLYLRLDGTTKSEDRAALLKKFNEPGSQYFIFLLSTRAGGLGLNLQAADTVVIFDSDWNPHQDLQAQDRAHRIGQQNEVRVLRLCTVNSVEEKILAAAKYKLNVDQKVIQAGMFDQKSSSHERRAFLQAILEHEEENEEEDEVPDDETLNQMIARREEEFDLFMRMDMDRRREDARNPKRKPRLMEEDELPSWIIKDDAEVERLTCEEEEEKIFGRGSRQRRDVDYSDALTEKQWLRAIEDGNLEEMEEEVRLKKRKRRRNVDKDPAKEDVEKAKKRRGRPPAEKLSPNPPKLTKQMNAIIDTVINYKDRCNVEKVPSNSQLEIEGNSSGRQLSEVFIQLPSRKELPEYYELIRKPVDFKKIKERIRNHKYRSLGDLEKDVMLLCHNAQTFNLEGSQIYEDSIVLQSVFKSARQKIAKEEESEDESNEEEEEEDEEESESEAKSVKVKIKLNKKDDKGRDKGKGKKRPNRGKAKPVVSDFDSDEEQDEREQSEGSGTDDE

| DC50 [1] [nM] | Dmax [1] [%] | Dmax % (SM4-HeLa) maximum SMARCA4 degradation within the concentrations tested [2] | DC50 [2] [nM] | Dmax % (SM2-HeLa) maximum SMARCA2 degradation within the concentrations tested [1] | Dmax [2] [%] | Compound |
| --- | --- | --- | --- | --- | --- | --- |
| < 100 | > 75 | B (B = 50%< Dmax <=75%) | < 100 | – | – | CCC(CN1CCC(N2CCN3c4cc(-c5ccccc5O)nnc4NC[C@H]3C2)C1)Oc1cc(C(C(=O)N2C[C@H](O)C[C@H]2C(=O)N[C@@H](C)c2ccc(-c3scnc3C)cc2)C(C)C)on1 (stereo partly drawn) [Example 61, (2S,4R)-4-hydroxy-1-(2-(3-((1-(3-((S)-2-(2-hydroxyphenyl)-5,6,6a,7,9,10-hexahydro-8H-pyrazino[1′,2′:4,5]pyrazino[2,3-c]pyridazin-8-yl)pyrrolidin-1-yl)butan-2-yl)oxy)isoxazol-5-yl)-3-methylbutanoyl)-N-((S)-1-(4-(4-methylthiazol-5-yl)phenyl)ethyl)pyrrolidine-2-carboxamide] |
| < 100 | – | A/A (A = Dmax >75%) | < 100 | A/A (A = Dmax >75%) | – | CCC(CN1CCC(N2CCN3c4cc(-c5ccccc5O)nnc4NC[C@H]3C2)C1)Oc1cc(C(C(=O)N2C[C@H](O)C[C@H]2C(=O)N[C@@H](C)c2ccc(-c3scnc3C)cc2)C(C)C)on1 (stereo partly drawn) [Example 62, (2S,4R)-4-hydroxy-1-(2-(3-((1-(3-((S)-2-(2-hydroxyphenyl)-5,6,6a,7,9,10-hexahydro-8H-pyrazino[1′,2′:4,5]pyrazino[2,3-c]pyridazin-8-yl)pyrrolidin-1-yl)butan-2-yl)oxy)isoxazol-5-yl)-3-methylbutanoyl)-N-((S)-1-(4-(4-methylthiazol-5-yl)phenyl)ethyl)pyrrolidine-2-carboxamide] |
| < 100 | > 75 | – | < 100 | – | > 75 | Cc1ncsc1-c1ccc([C@H](C)NC(=O)[C@@H]2C[C@@H](O)CN2C(=O)[C@@H](c2cc(OCCN3CCC(N4CCN5c6cc(-c7ccccc7O)nnc6NCC5(C)C4)CC3)no2)C(C)C)cc1 (stereo partly drawn) [Example 63, (2S,4R)-4-hydroxy-1-((2R)-2-(3-(2-(4-(2-(2-hydroxyphenyl)-6a-methyl-5,6,6a,7,9,10-hexahydro-8H-pyrazino[1′,2′:4,5]pyrazino[2,3-c]pyridazin-8-yl)piperidin-1-yl)ethoxy)isoxazol-5-yl)-3-methylbutanoyl)-N-((S)-1-(4-(4-methylthiazol-5-yl)phenyl)ethyl)pyrrolidine-2-carboxamide] |
| < 100 | > 75 | – | < 100 | – | > 75 | Cc1ncsc1-c1ccc([C@H](C)NC(=O)[C@@H]2C[C@@H](O)CN2C(=O)[C@@H](c2cc(O[C@@H](C)CN3CCC(N4CCN5c6cc(-c7ccccc7O)nnc6NCC5(C)C4)C3)no2)C(C)C)cc1 (stereo partly drawn) [Example 64, (2S,4R)-4-hydroxy-1-((2R)-2-(3-(((2S)-1-(3-(2-(2-hydroxyphenyl)-6a-methyl-5,6,6a,7,9,10-hexahydro-8H-pyrazino[1′,2′:4,5]pyrazino[2,3-c]pyridazin-8-yl)pyrrolidin-1-yl)propan-2-yl)oxy)isoxazol-5-yl)-3-methylbutanoyl)-N-((S)-1-(4-(4-methylthiazol-5-yl)phenyl)ethyl)pyrrolidine-2-carboxamide] |
| < 100 | > 75 | – | 100 to 1000 | – | > 75 | Cc1ncsc1-c1ccc([C@H](C)NC(=O)[C@@H]2C[C@@H](O)CN2C(=O)[C@@H](c2cc(OC(C)CN3CCCC(CN4CCN5c6cc(-c7ccccc7O)nnc6NC[C@H]5C4)CC3)no2)C(C)C)cc1 (stereo partly drawn) [Example 68, (2S,4R)-4-hydroxy-1-((2R)-2-(3-((1-(4-(((S)-2-(2-hydroxyphenyl)-5,6,6a,7,9,10-hexahydro-8H-pyrazino[1′,2′:4,5]pyrazino[2,3-c]pyridazin-8-yl)methyl)azepan-1-yl)propan-2-yl)oxy)isoxazol-5-yl)-3-methylbutanoyl)-N-((S)-1-(4-(4-methylthiazol-5-yl)phenyl)ethyl)pyrrolidine-2-carboxamide] |
| < 100 | > 75 | – | < 100 | – | > 75 | Cc1ncsc1-c1ccc([C@H](C)NC(=O)[C@@H]2C[C@@H](O)CN2C(=O)[C@@H](c2cc(OCCN3CCC(N4CCN5c6cc(-c7ccccc7O)nnc6NCC5(C)C4)C3)no2)C(C)C)cc1 (stereo partly drawn) [Example 71, (2S,4R)-4-hydroxy-1-((2R)-2-(3-(2-(3-(2-(2-hydroxyphenyl)-6a-methyl-5,6,6a,7,9,10-hexahydro-8H-pyrazino[1′,2′:4,5]pyrazino[2,3-c]pyridazin-8-yl)pyrrolidin-1-yl)ethoxy)isoxazol-5-yl)-3-methylbutanoyl)-N-((S)-1-(4-(4-methylthiazol-5-yl)phenyl)ethyl)pyrrolidine-2-carboxamide] |
| < 100 | – | – | < 100 | – | – | Cc1ncsc1-c1ccc([C@H](C)NC(=O)[C@@H]2C[C@@H](O)CN2C(=O)[C@@H](c2cc(OCCN3CCC(N4CCN5c6cc(-c7ccccc7O)nnc6NCC5(C)C4)C3)no2)C(C)C)cc1 (stereo partly drawn) [Example 72, (2S,4R)-4-hydroxy-1-((2R)-2-(3-(2-(3-(2-(2-hydroxyphenyl)-6a-methyl-5,6,6a,7,9,10-hexahydro-8H-pyrazino[1′,2′:4,5]pyrazino[2,3-c]pyridazin-8-yl)pyrrolidin-1-yl)ethoxy)isoxazol-5-yl)-3-methylbutanoyl)-N-((S)-1-(4-(4-methylthiazol-5-yl)phenyl)ethyl)pyrrolidine-2-carboxamide] |
| < 100 | > 75 | – | 100 to 1000 | – | 50 to 75 | Cc1ncsc1-c1ccc([C@H](C)NC(=O)[C@@H]2C[C@@H](O)CN2C(=O)[C@@H](c2cc(O[C@H](C)C(=O)N3CCC(N4CCN5c6cc(-c7ccccc7O)nnc6NC[C@H]5C4)CC3)no2)C(C)C)cc1 [Example 73, (2S,4R)-4-hydroxy-1-((R)-2-(3-(((R)-1-(4-((S)-2-(2-hydroxyphenyl)-5,6,6a,7,9,10-hexahydro-8H-pyrazino[1′,2′:4,5]pyrazino[2,3-c]pyridazin-8-yl)piperidin-1-yl)-1-oxopropan-2-yl)oxy)isoxazol-5-yl)-3-methylbutanoyl)-N-((S)-1-(4-(4-methylthiazol-5-yl)phenyl)ethyl)pyrrolidine-2-carboxamide] |
| < 100 | > 75 | – | < 100 | – | > 75 | Cc1ncsc1-c1ccc([C@H](C)NC(=O)[C@@H]2C[C@@H](O)CN2C(=O)[C@@H](c2cc(OCCN3CCC(N4CCN5c6cc(-c7ccccc7O)nnc6NC[C@H]5C4)CC3)no2)C(C)C)cc1 [Example 76, (2S,4R)-4-hydroxy-1-((R)-2-(3-(2-(4-((S)-2-(2-hydroxyphenyl)-5,6,6a,7,9,10-hexahydro-8H-pyrazino[1′,2′:4,5]pyrazino[2,3-c]pyridazin-8-yl)piperidin-1-yl)ethoxy)isoxazol-5-yl)-3-methylbutanoyl)-N-((S)-1-(4-(4-methylthiazol-5-yl)phenyl)ethyl)pyrrolidine-2-carboxamide] |
| < 100 | > 75 | – | < 100 | – | > 75 | Cc1ncsc1-c1ccc([C@H](C)NC(=O)[C@@H]2C[C@@H](O)CN2C(=O)[C@@H](c2cc(OCCN3CC=C(CN4CCN5c6cc(-c7ccccc7O)nnc6NC[C@H]5C4)CC3)no2)C(C)C)cc1 [Example 90, (2S,4R)-4-hydroxy-1-((R)-2-(3-(2-(4-(((S)-2-(2-hydroxyphenyl)-5,6,6a,7,9,10-hexahydro-8H-pyrazino[1′,2′:4,5]pyrazino[2,3-c]pyridazin-8-yl)methyl)-3,6-dihydropyridin-1(2H)-yl)ethoxy)isoxazol-5-yl)-3-methylbutanoyl)-N-((S)-1-(4-(4-methylthiazol-5-yl)phenyl)ethyl)pyrrolidine-2-carboxamide] |
| < 100 | > 75 | – | ≥ 10000 | – | ≤ 50 | Cc1ncsc1-c1ccc([C@H](C)NC(=O)[C@@H]2C[C@@H](O)CN2C(=O)[C@@H](c2cc(CCCN(C)CCN3CCN4c5cc(-c6ccccc6O)nnc5NC[C@H]4C3)no2)C(C)C)cc1 [Example 92, (2S,4R)-4-hydroxy-1-((R)-2-(3-(3-((2-((S)-2-(2-hydroxyphenyl)-5,6,6a,7,9,10-hexahydro-8H-pyrazino[1′,2′:4,5]pyrazino[2,3-c]pyridazin-8-yl)ethyl)(methyl)amino)propyl)isoxazol-5-yl)-3-methylbutanoyl)-N-((S)-1-(4-(4-methylthiazol-5-yl)phenyl)ethyl)pyrrolidine-2-carboxamide] |
